Test results reported in PubChem BioAssay (NCI).
Several values for one entry are separate records, joined by “and”; a condition that tells them apart may be missing. Equal entries are not always repeated.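 The compound was tested at five concentrations on cells cultured in 96-well plates, with a 48-hour exposure period. GI50 marks 50% less growth. At the TGI there is no net growth.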

Legend:
Assay in all cases: DTP human tumour cell line panel, 48 h
[1] = system: RXF 393 renal
[2] = system: OVCAR-3 ovarian
[3] = system: SK-MEL-28 melanoma
[4] = system: KM12 colon
[5] = system: UACC-257 melanoma
[6] = system: MALME-3M melanoma
[7] = system: SK-OV-3 ovarian
[8] = system: CCRF-CEM leukemia
[9] = system: HOP-92 NSCLC
[10] = system: TK-10 renal
[11] = system: OVCAR-4 ovarian
[12] = system: HCT-15 colon
[13] = system: HCT-116 colon
[14] = system: SK-MEL-2 melanoma
[15] = system: UACC-62 melanoma
[16] = system: M14 melanoma
[17] = system: HOP-62 NSCLC
[18] = system: PC-3 prostate
[19] = system: HT29 colon
[20] = system: SF-295 CNS
[21] = system: K-562 leukemia
[22] = system: ACHN renal
[23] = system: NCI-H460 lung
[24] = system: RPMI-8226 leukemia
[25] = system: MDA-MB-231 breast
[26] = system: MDA-MB-435
[27] = system: COLO 205 colon
[28] = system: OVCAR-5 ovarian
[29] = system: T-47D breast
[30] = system: IGROV1 ovarian
[31] = system: NCI/ADR-RES ovarian
[32] = system: BT-549 breast
[33] = system: CAKI-1 renal
[34] = system: LOX IMVI melanoma
[35] = system: 786-0 renal
[36] = system: SF-268 CNS
[37] = system: UO-31 renal
[38] = system: U251 CNS
[39] = system: NCI-H23 lung
[40] = system: SNB-19 CNS
[41] = system: A549 NSCLC
[42] = system: NCI-H226 lung

In the case of `COc1ccc2c(c1)/C(=C\c1c(-c3cc(OC)ccc3OC)nc3sccn13)C(=O)N2`, the GI50 [1] is reported as 1.77 µM, the TGI [1] is reported as 3.93 µM and the GI50 [2] is reported as 6.38 µM and 3.51 µM. It also gave a TGI [2] of 14.3 µM, a GI50 [3] of 1.49 µM and a TGI [3] of 2.81 µM. The GI50 [4] was 2 µM, the TGI [4] was 3.98 µM and the GI50 [5] was 2.17 µM. For the same compound, the TGI [5] was 4.43 µM, the GI50 [6] was 1.38 µM and the TGI [6] was 2.97 µM. It also gave a GI50 [7] of 9.29 µM, a TGI [7] of 24.6 µM and a GI50 [8] of 6.91 µM. The GI50 [9] was 1.76 µM, the TGI [9] was 3.47 µM and the GI50 [10] was 1.76 µM. It also gave a TGI [10] of 3.14 µM, a GI50 [11] of 1.53 µM and a TGI [11] of 2.87 µM. The GI50 [12] was 7.19 µM and 5.37 µM, the TGI [12] was 18.7 µM and the GI50 [13] was 1.42 µM. The TGI [13] was 3.48 µM, the GI50 [14] was 1.77 µM and the TGI [14] was 4.2 µM. For the same compound, the GI50 [15] was 5.42 µM and 12.4 µM, the TGI [15] was 28.5 µM and the GI50 [16] was 7.14 µM and 1.71 µM. For the same compound, the TGI [16] was 3.09 µM, the GI50 [17] was 1.75 µM and the TGI [17] was 3.29 µM. The GI50 [18] was 7.97 µM and 2.32 µM, the TGI [18] was 5.83 µM and the GI50 [19] was 1.37 µM. For the same compound, the TGI [19] was 2.66 µM, the GI50 [20] was 5.31 µM and 18.2 µM and the TGI [20] was 44.1 µM. It also gave a GI50 [21] of 5.88 µM, a GI50 [22] of 2.37 µM and a TGI [22] of 9.74 µM. For the same compound, the GI50 [23] was 4.39 µM, the TGI [23] was over 100 µM and the GI50 [24] was 3.4 µM. The GI50 [25] was 3.32 µM, the TGI [25] was 14.2 µM and the GI50 [26] was 2.05 µM and 14.3 µM. The TGI [26] was 4.6 µM and 39 µM, the GI50 [27] was 1.51 µM and the TGI [27] was 2.84 µM. For the same compound, the GI50 [28] was 6.65 µM and 1.73 µM, the TGI [28] was 3.1 µM and the GI50 [29] was 1.32 µM. For the same compound, the TGI [29] was 2.74 µM, the GI50 [30] was 0.697 µM and the TGI [30] was 2.73 µM. For the same compound, the GI50 [31] was 4.83 µM and 1.7 µM, the TGI [31] was 3.39 µM and the GI50 [32] was 4.67 µM. It also gave a GI50 [33] of 3.82 µM, a TGI [33] of 13.8 µM and a GI50 [34] of 5.22 µM. For the same compound, the TGI [34] was 21.5 µM, the GI50 [35] was 0.561 µM and the TGI [35] was 1.78 µM. For the same compound, the GI50 [36] was 2.08 µM, the TGI [36] was 4.32 µM and the GI50 [37] was 1.57 µM. For the same compound, the TGI [37] was 3.02 µM, the GI50 [38] was 9.76 µM and the TGI [38] was 24.5 µM. The GI50 [39] was 1.47 µM, the TGI [39] was 2.83 µM and the GI50 [40] was 1.72 µM. For the same compound, the TGI [40] was 3.54 µM, the GI50 [41] was 48.6 µM and the TGI [41] was over 100 µM. For the same compound, the GI50 [42] was 11.8 µM and the TGI [42] was 54.2 µM.
